Experimental data taken from US9376418B2, “Substituted pyridine spleen tyrosine kinase (SYK) inhibitors” (Merck Sharp & Dohme Corp., priority 2012, dated 2016).

What follows are compounds tested against T1, recombinant human GST-SYK (Homo sapiens, UniProt P43405) (assay: Homogeneous Time-Resolved Fluorescence (HTRF) assay for the recombinant human Syk enzyme). Conditions: HTRF assay, recombinant human GST-SYK; IC50 given as class symbols; read-out: rhSYK Activity.
T1 construct: purchased Carna Biosciences 08-176
Type: biochemical
Procedure, shortened: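 HTRF read-out: Europium-anti-phosphotyrosine antibody (2 nM) plus SA-APC (70 nM) in EDTA-containing buffer quenched the reaction, and signal was read after 30 minutes. Kinase step used […], 250 nM biotinylated peptide, 25 μM ATP, 5 mM Mg, 45′ at room temperature.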

IC50, 100 to 1000 nM:
CNC(=O)C1CCCN1c1cc(-c2cc(C)cc(Nc3nccc(C(F)(F)F)n3)c2)ccn1 (racemic) [Example 15.81, N-methyl-1-[4-(3-methyl-5-{[4-(trifluoromethyl)pyrimidin-2-yl]amino}phenyl)pyridin-2-yl]prolinamide]
CCC(O)(CC)c1cccc(-c2cccc(Nc3nccc(C(F)(F)F)n3)c2)n1 [Example 2.4, 3-[6-(3-{[4-(trifluoromethyl)pyrimidin-2-yl]amino}phenyl)pyridin-2-yl]pentan-3-ol]
Cc1cc(Nc2nccc(C(F)(F)F)n2)cc(-c2ccc(C(=O)NCc3ncnn3C)nc2)c1 [Example 16.27, N-[(1-methyl-1H-1,2,4-triazol-5-yl)methyl]-5-(3-methyl-5-{[4-(trifluoromethyl)pyrimidin-2-yl]amino}phenyl)pyridine-2-carboxamide]
COc1cc(-c2cccc(Nc3nccc(C(F)(F)F)n3)c2)ccn1 [Example 2.122, N-[3-(2-methoxypyridin-4-yl)phenyl]-4-(trifluoromethyl)pyrimidin-2-amine]

IC50, < 100 nM:
Cc1cc(Nc2nccc(C)n2)cc(-c2ccc(C3(O)CCC(C(=O)O)C(C)(C)C3)nc2)c1 (centres unmarked) [Example 9.39, 4-hydroxy-2,2-dimethyl-4-(5-{3-methyl-5-[(4-methylpyrimidin-2-yl)amino]phenyl}pyridin-2-yl)cyclohexanecarboxylic acid]
CSCC[C@H](Nc1ccc(-c2cc(C)cc(Nc3nccc(C(F)(F)F)n3)c2)cn1)C(=O)O [Example 7.95, N-[5-(3-methyl-5-{[4-(trifluoromethyl)pyrimidin-2-yl]amino}phenyl)pyridin-2-yl]-L-methionine]
Cc1cc(Nc2nccc(C(F)(F)F)n2)cc(-c2ccc(N3CCC(C(=O)N4CCC(C(=O)O)CC4)CC3)nc2)c1 [Example 7.141, 1-({1-[5-(3-methyl-5-{[4-(trifluoromethyl)pyrimidin-2-yl]amino}phenyl)pyridin-2-yl]piperidin-4-yl}carbonyl)piperidine-4-carboxylic acid]
Cc1cc(Nc2nccc(C(F)(F)F)n2)cc(-c2ccc(CN)nc2)c1 [Example 2.63, N-{3-[6-(aminomethyl)pyridin-3-yl]-5-methylphenyl}-4-(trifluoromethyl)pyrimidin-2-amine]
Cc1cc(Nc2nccc(C(F)(F)F)n2)cc(-c2ccc(NCCC(N)=O)nc2)c1 [Example 7.43, N~3~-[5-(3-methyl-5-{[4-(trifluoromethyl)pyrimidin-2-yl]amino}phenyl)pyridin-2-yl]-beta-alaninamide]
Cc1cc(Nc2nccc(C(F)(F)F)n2)cc(-c2ccc(N[C@@H](Cc3ccc(O)cc3)C(=O)O)nc2)c1 [Example 7.98, N-[5-(3-methyl-5-{[4-(trifluoromethyl)pyrimidin-2-yl]amino}phenyl)pyridin-2-yl]-L-tyrosine]
Cc1cc(Nc2nccc(C(F)(F)F)n2)cc(-c2ccc(NC(C)(CC(F)(F)F)c3nnn[nH]3)nc2)c1 (centres unmarked) [Example 18.7, N-[3-methyl-5-(6-{[4,4,4-trifluoro-2-(1H-tetrazol-5-yl)butan-2-yl]amino}pyridin-3-yl)phenyl]-4-(trifluoromethyl)pyrimidin-2-amine]
Cc1cc(Nc2nccc(C(F)(F)F)n2)cc(-c2ccc(NC[C@H]3CC[C@H](C(=O)O)CC3)nc2)c1 [Example 7.144, trans-4-({[5-(3-methyl-5-{[4-(trifluoromethyl)pyrimidin-2-yl]amino}phenyl)pyridin-2-yl]amino}methyl)cyclohexanecarboxylic acid]
Cc1cc(Nc2nccc(C(F)(F)F)n2)cc(-c2ccc(CCc3noc(=O)[nH]3)nc2)c1 [Example 13.5, 3-{2-[5-(3-Methyl-5-{[4-(trifluoromethyl)pyrimidin-2-yl]amino}phenyl)pyridin-2-yl]ethyl}-1,2,4-oxadiazol-5(4H)-one]
Cc1cc(Nc2nccc(C(F)(F)F)n2)cc(-c2cncc(F)c2)c1 [Example 4.3, N-[3-(5-fluoropyridin-3-yl)-5-methylphenyl]-4-(trifluoromethyl)pyrimidin-2-amine]
Cc1cc(Nc2nccc(C(F)(F)F)n2)cc(-c2ccc(C(=O)N(C)CCO)nc2)c1 [Example 16.6, N-(2-hydroxyethyl)-N-methyl-5-(3-methyl-5-{[4-(trifluoromethyl)pyrimidin-2-yl]amino}phenyl)pyridine-2-carboxamide]
Cc1cc(Nc2nccc(C(F)(F)F)n2)cc(-c2ccc(N3CCC(C(=O)O)CC3)nc2)c1 [Example 7.136, 1-[5-(3-methyl-5-{[4-(trifluoromethyl)pyrimidin-2-yl]amino}phenyl)pyridin-2-yl]piperidine-4-carboxylic acid]
CNC(=O)NCc1ccc(-c2cc(C)cc(Nc3nccc(C(F)(F)F)n3)c2)cn1 [Example 17.3, 1-methyl-3-{[5-(3-methyl-5-{[4-(trifluoromethyl)pyrimidin-2-yl]amino}phenyl)pyridin-2-yl]methyl}urea]
CC(=O)N1CCN(c2cc(-c3cc(C)cc(Nc4nccc(C(F)(F)F)n4)c3)ccn2)CC1 [Example 15.23, 1-{4-[4-(3-Methyl-5-{[4-(trifluoromethyl)pyrimidin-2-yl]amino}phenyl)pyridin-2-yl]piperazin-1-yl}ethanone]
Cc1cc(Nc2nccc(C3CC3)n2)cc(-c2cc(CCC(=O)O)ccn2)c1 [Example 2.24, 3-(2-{3-[(4-cyclopropylpyrimidin-2-yl)amino]-5-methylphenyl}pyridin-4-yl)propanoic acid]
CCOC(=O)CCc1cncc(-c2cc(C)cc(Nc3nccc(C4CC4)n3)c2)c1 [Example 2.100]
Cc1cc(Nc2nccc(C3CC3)n2)cc(-c2ccc(C(C)(O)[C@H]3CC[C@H](C(=O)O)CC3)nc2)c1 (stereo partly drawn) [Example 9.24, trans-4-[1-(5-{3-[(4-cyclopropylpyrimidin-2-yl)amino]-5-methylphenyl}pyridin-2-yl)-1-hydroxyethyl]cyclohexanecarboxylic acid]
Cc1cc(Nc2nccc(C(F)(F)F)n2)cc(-c2ccc(CN3CCCC3=O)nc2)c1 [Example 14.1, 1-{[5-(3-Methyl-5-{[4-(trifluoromethyl)pyrimidin-2-yl]amino}phenyl)pyridin-2-yl]methyl}pyrrolidin-2-one]
Cc1cc(Nc2nccc(C(F)(F)F)n2)cc(-c2ccc(C(=O)N3CCOC3=O)nc2)c1 [Example 16.3, 3-{[5-(3-Methyl-5-{[4-(trifluoromethyl)pyrimidin-2-yl]amino}phenyl)pyridin-2-yl]carbonyl}-1,3-oxazolidin-2-one]
Cc1cc(Nc2nccc(C(F)(F)F)n2)cc(-c2ccnc(O)c2)c1 [Example 2.125, 4-(3-methyl-5-{[4-(trifluoromethyl)pyrimidin-2-yl]amino}phenyl)pyridin-2-ol]
Cc1cc(Nc2nccc(C(F)(F)F)n2)cc(-c2ccnc(NC(C)(C)C(=O)O)c2)c1 [Example 15.43, 2-methyl-N-[4-(3-methyl-5-{[4-(trifluoromethyl)pyrimidin-2-yl]amino}phenyl)pyridin-2-yl]alanine]
Cc1cc(Nc2nccc(C(F)(F)F)n2)cc(-c2ccc(NC(CO)C(=O)O)nc2)c1 (centres unmarked) [Example 7.69, N-[5-(3-methyl-5-{[4-(trifluoromethyl)pyrimidin-2-yl]amino}phenyl)pyridin-2-yl]serine]
